Where two headings read alike, the source gives them in different places.
What was measured:
SETD2(1434-1711) = molecular target: T1, SETD2(1434-1711) (Homo sapiens, UniProt Q9BYW2); experiment: SETD2 (1434-1711) assay; format: biochemical
T1 construct: SETD2 (1434-1711) Assay; catalogue N/A
T1 sequence (Q9BYW2 1434-1711): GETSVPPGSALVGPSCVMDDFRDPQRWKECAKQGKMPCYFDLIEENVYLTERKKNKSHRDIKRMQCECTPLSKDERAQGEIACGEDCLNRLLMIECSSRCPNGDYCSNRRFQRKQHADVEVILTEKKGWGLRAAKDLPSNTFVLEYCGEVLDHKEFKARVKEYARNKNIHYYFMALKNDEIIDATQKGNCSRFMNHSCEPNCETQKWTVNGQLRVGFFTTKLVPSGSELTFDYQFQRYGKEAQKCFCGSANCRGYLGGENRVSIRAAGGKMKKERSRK

H3K36me3 in A549 cells = experiment: In-Cell Western (ICW) assay of SETD2 inhibitors (A549 assay); format: cell-based, human
Procedure, shortened: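 A549 cells seeded at 4,000/well onto compound and incubated 3 days at 37° C. Methanol-fixed cells stained overnight at 4° C with anti-H3K36me3 (1:1000), then IRDye 800CW secondary with DRAQ5 DNA counterstain. Plates read by Licor imaging at 700 and 800 channels.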

[1] = Homo sapiens, A549 cells, read-out: SETD2 A549
[2] = A549 cells, read-out: SETD2 A549

IC50 (SETD2(1434-1711); read-out: SETD2 (1434-1711)) [µM]	IC50 (H3K36me3 in A549 cells; [1]) [µM]	IC50 (H3K36me3 in A549 cells; [2]) [µM]	Compound	IC50 (SETD2(1434-1711)) [µM]	IC50 (H3K36me3 in A549 cells; Homo sapiens, A549, read-out: SETD2 A549) [µM]
0.02	0.3	–	Cc1ccc(F)c2cc(C(=O)Nc3cccc(N4CCC(N(C)CCO)C4)c3)[nH]c12 (stereo not drawn) [compound 148]	–	–
0.07	0.3	–	Cc1ccc(F)c2cc(C(=O)Nc3cccc(N4CCN(C(=O)CCO)CC4)c3)[nH]c12 [compound 149]	–	–
0.02	0.3	–	Cc1ccc(F)c2cc(C(=O)Nc3cccc(N4CCC(CCCN)CC4)c3)[nH]c12 [compound 150]	–	–
0.01	0.3	–	Cc1ccc(F)c2cc(C(=O)Nc3cccc(N4CCC(N5CCN(C)CC5)CC4)c3)[nH]c12 [compound 152]	–	–
0.05	0.3	–	Cc1ccc(F)c2cc(C(=O)Nc3cccc(N4CCC(N5CCC(F)(F)CC5)C4)c3)[nH]c12 (stereo not drawn) [compound 153]	–	–
0.03	0.3	–	Cc1ccc(F)c2cc(C(=O)Nc3cccc(N4C[C@@H](O)[C@H](N(C)C)C4)c3)[nH]c12 [compound 154]	–	–
0.05	0.3	–	COC1CN(C2CCN(c3cccc(NC(=O)c4cc5c(F)ccc(C)c5[nH]4)c3)CC2)C1 [compound 155]	–	–
0.03	0.3	–	COCCN(C)C1CCN(c2cccc(NC(=O)c3cc4c(F)ccc(C)c4[nH]3)c2)C1 (stereo not drawn) [compound 156]	–	–
0.05	0.3	–	Cc1ccc(F)c2cc(C(=O)Nc3cccc(N4CCC(Nc5cccnc5)CC4)c3)[nH]c12 [compound 157]	–	–
0.08	0.3	–	Cc1ccc(F)c2cc(C(=O)Nc3cc(F)cc(N4CCC(C)(N5CCOCC5)C4)c3)[nH]c12 (stereo not drawn) [compound 159]	–	–
0.09	0.3	–	Cc1ccc(F)c2cc(C(=O)Nc3cccc(C4CCN(C)C(=O)C4)c3)[nH]c12 (stereo not drawn) [compound 160]	–	–
0.09	0.3	–	Cc1ccc(F)c2cc(C(=O)Nc3cccc(-n4cncn4)c3)[nH]c12 [compound 162]	–	–
0.03	–	0.3	CC(=O)N1C2CCC1CN(c1cccc(NC(=O)c3cc4c(F)ccc(C)c4[nH]3)c1)C2 [compound 163]	–	–
0.1	0.3	–	Cc1ccc(F)c2cc(C(=O)Nc3cccc(-c4cnn(CCN5CCOCC5)c4)c3)[nH]c12 [compound 164]	–	–
0.01	0.3	–	Cc1ccc(F)c2cc(C(=O)Nc3cccc(N4CC5CN(C)CC5C4)c3)[nH]c12 (stereo not drawn) [compound 165]	–	–
0.07	0.3	–	Cc1ccc(F)c2cc(C(=O)Nc3cccc([C@H]4CCN5C(=O)CC[C@@H]5C4)c3)[nH]c12 [compound 166]	–	–
0.05	0.3	–	Cc1ccc(F)c2cc(C(=O)Nc3cccc(N4CCOC(CN(C)C)C4)c3)[nH]c12 (stereo not drawn) [compound 167]	–	–
0.02	0.3	–	Cc1ccc(F)c2cc(C(=O)Nc3cccc(C4CCN(C)CC4)c3)[nH]c12 [compound 168]	–	–
0.05	0.3	–	Cc1ccc(F)c2cc(C(=O)Nc3cccc(N4CCN(C(=O)CC#N)CC4)c3)[nH]c12 [compound 170]	–	–
0.1	0.3	–	Cc1ccc(F)c2cc(C(=O)Nc3cccc(-c4nccn4C)c3)[nH]c12 [compound 171]	–	–

IC50 (SETD2(1434-1711); read-out: SETD2 (1434-1711)) [µM]	IC50 (H3K36me3 in A549 cells; [1]) [µM]	IC50 (H3K36me3 in A549 cells; [2]) [µM]	Compound	IC50 (SETD2(1434-1711)) [µM]	IC50 (H3K36me3 in A549 cells; Homo sapiens, A549, read-out: SETD2 A549) [µM]
0.02	–	0.3	Cc1ccc(F)c2cc(C(=O)Nc3cccc(N4CCC5C(CCN5C)C4)c3)[nH]c12 (stereo not drawn) [compound 172]	–	–
0.07	0.3	–	COCC1(COC)CCN(c2cccc(NC(=O)c3cc4c(F)ccc(C)c4[nH]3)c2)CC1 [compound 173]	–	–
0.05	0.3	–	Cc1ccc(F)c2cc(C(=O)Nc3cccc(N4CCC(N5CC(O)C5)C4)c3)[nH]c12 (stereo not drawn) [compound 174]	–	–
0.07	0.3	–	Cc1cccnc1C(Cc1cnn(CC2CC2)c1)NC(=O)c1cc2cccc(C)c2[nH]1 (stereo not drawn) [compound 175]	–	–
0.1	0.3	–	Cc1ccc(F)c2cc(C(=O)Nc3cccc(N4CCN(S(C)(=O)=O)CC4)c3)[nH]c12 [compound 176]	–	–
0.1	0.4	–	Cc1ccc(F)c2cc(C(=O)Nc3cccc(C4CNC(=O)C4)c3)[nH]c12 (stereo not drawn) [compound 177]	–	–
0.01	0.4	–	Cc1ccc(F)c2cc(C(=O)Nc3cccc(N4CCC(N5CCC5)C4)c3)[nH]c12 (stereo not drawn) [compound 178]	–	–
0.01	0.4	–	Cc1ccc(F)c2cc(C(=O)Nc3cccc(N4CCC5(CC4)CNC5)c3)[nH]c12 [compound 179]	–	–
0.03	0.4	–	Cc1ccc(F)c2cc(C(=O)Nc3cccc(N4CCC(N5CCCC5)CC4)c3)[nH]c12 [compound 180]	–	–
0.03	–	0.4	Cc1ccc(F)c2cc(C(=O)Nc3cccc(N4CCN5C(=O)NCC5C4)c3)[nH]c12 (stereo not drawn) [compound 181]	–	–
0.02	–	0.4	Cc1ccc(F)c2cc(C(=O)Nc3cccc(N4CC5CCCN(C)C5C4)c3)[nH]c12 (stereo not drawn) [compound 182]	–	–
0.09	0.4	–	Cc1ccc(F)c2cc(C(=O)Nc3cc(F)cc(N4CCCN(C)C(=O)C4)c3)[nH]c12 [compound 183]	–	–
0.01	0.4	–	Cc1ccc(F)c2cc(C(=O)Nc3cccc(N4CC5(CCNCC5)C4)c3)[nH]c12 [compound 184]	–	–
0.1	0.4	–	CC(=O)N1CCN(c2ccc(F)c(NC(=O)c3cc4c(F)ccc(C)c4[nH]3)c2)CC1 [compound 185]	–	–
0.03	0.4	–	Cc1ccc(F)c2cc(C(=O)Nc3cccc(N4CC[C@H](N(C)C)[C@H](F)C4)c3)[nH]c12 [compound 186]	–	–
0.02	0.4	–	Cc1ccc(F)c2cc(C(=O)Nc3cc(Cl)cc(N4CCC(CCCN5CCOCC5)CC4)c3)[nH]c12 [compound 188]	–	–
0.006	0.4	–	Cc1ccc(F)c2cc(C(=O)Nc3cccc(N4CCC5(CCNCC5)C4)c3)[nH]c12 [compound 189]	–	–
0.03	0.4	–	Cc1ccc(F)c2cc(C(=O)Nc3cccc(N4CCN(C)C4=O)c3)[nH]c12 [compound 191]	–	–
0.03	0.4	–	Cc1ccc(F)c2cc(C(=O)Nc3cccc(N4CCC(N)CC4)c3)[nH]c12 [compound 192]	–	–
0.1	0.4	–	CC(=O)N1CCN(c2cccc(NC(=O)c3cc4c(F)ccc(C)c4[nH]3)c2)CC1CC(C)C (stereo not drawn) [compound 193]	–	–

IC50 (SETD2(1434-1711); read-out: SETD2 (1434-1711)) [µM]	IC50 (H3K36me3 in A549 cells; [1]) [µM]	IC50 (H3K36me3 in A549 cells; [2]) [µM]	Compound	IC50 (SETD2(1434-1711)) [µM]	IC50 (H3K36me3 in A549 cells; Homo sapiens, A549, read-out: SETD2 A549) [µM]
0.04	0.4	–	Cc1ccc(F)c2cc(C(=O)Nc3cccc(C4(O)CCC(N(C)C)CC4)c3)[nH]c12 (stereo not drawn) [compound 195]	–	–
0.1	0.4	–	Cc1ccc(F)c2cc(C(=O)Nc3cccc(-c4ccno4)c3)[nH]c12 [compound 196]	–	–
0.1	0.4	–	Cc1ccc(F)c2cc(C(=O)Nc3cccc(-c4cncn4C)c3)[nH]c12 [compound 197]	–	–
0.07	–	0.4	COC1CCN(c2cccc(NC(=O)c3cc4c(F)ccc(C)c4[nH]3)c2)CC1 [compound 198]	–	–
0.05	–	0.4	Cc1ccc(F)c2cc(C(=O)Nc3cccc(N4CCN(CC5CC5)CC4)c3)[nH]c12 [compound 199]	–	–
0.05	–	0.4	Cc1ccc(F)c2cc(C(=O)Nc3cccc(N4CCNC(=O)CC4)c3)[nH]c12 [compound 200]	–	–
0.09	–	0.4	Cc1ccc(F)c2cc(C(=O)Nc3cccc(N4CCN(C(C)C)C(=O)C4)c3)[nH]c12 [compound 201]	–	–
0.02	–	0.4	Cc1ccc(F)c2cc(C(=O)Nc3cccc(N4CC[C@@H](N(C)C)[C@@H](C)C4)c3)[nH]c12 [compound 202]	–	–
0.01	–	0.4	CCNCC1CN(c2cccc(NC(=O)c3cc4c(F)ccc(C)c4[nH]3)c2)CCO1 (stereo not drawn) [compound 203]	–	–
–	–	–	Cc1ccc(F)c2cc(C(=O)Nc3cccc(N4CCN(CCO)CC4)c3)[nH]c12 [compound 204]	0.08	0.4
0.03	–	0.4	Cc1ccc(F)c2cc(C(=O)Nc3cccc(N4CCN(C(C)C)C(C)C4)c3)[nH]c12 (stereo not drawn) [compound 205]	–	–
0.09	–	0.4	Cc1ccc(F)c2cc(C(=O)Nc3cccc(N4CCC5(CCN(CC(F)F)C5)CC4)c3)[nH]c12 [compound 206]	–	–
0.1	–	0.4	Cc1ccc(F)c2cc(C(=O)Nc3cccc(N4CCN(C5CCOCC5)CC4)c3)[nH]c12 [compound 207]	–	–
0.06	–	0.4	Cc1ccc(F)c2cc(C(=O)Nc3cccc(N4CCN(C(=O)CN(C)C)CC4)c3)[nH]c12 [compound 208]	–	–
0.2	0.4	–	Cc1ccc(F)c2cc(C(=O)Nc3cccc(N4CCOCC4=O)c3)[nH]c12 [compound 209]	–	–
0.03	–	0.4	Cc1ccc(F)c2cc(C(=O)Nc3cccc(N4CCC(NCCO)CC4)c3)[nH]c12 [compound 210]	–	–
0.02	–	0.4	Cc1ccc(F)c2cc(C(=O)Nc3cccc(N4CCC5(CCCN5C)CC4)c3)[nH]c12 [compound 212]	–	–
0.1	–	0.5	CC(=O)N1[C@H](C)CN(c2cccc(NC(=O)c3cc4c(F)ccc(C)c4[nH]3)c2)C[C@H]1C [compound 214]	–	–
0.07	–	0.5	Cc1ccc(F)c2cc(C(=O)Nc3cccc(-c4cc5cnccn5c4)c3)[nH]c12 [compound 215]	–	–
0.1	–	0.5	Cc1ccc(F)c2cc(C(=O)Nc3cccc(N4CCOCC4C)c3)[nH]c12 (stereo not drawn) [compound 216]	–	–

— patent publication US12116358B2, “Substituted indoles and methods of use thereof” (EPIZYME, INC., priority 2018, dated 2024)
